Columns and labels:
HGF-1 cells = assay: Cell viability of HGF-1 cells incubated with deferoxamine; format: cell-based, human; settings: HGF-1, deferoxamine 50, 100, 150 μM
Experimental: To better characterize the effectiveness of an iron chelator in regulating the upregulation of MMPs, HGF-1 cells were incubated with varying therapeutically relevant concentrations of deferoxamine (50, 100, 150 μM).

MMP-2 = assay: Western blot of MMP-2 in HGF-1 cells treated with FAC, CMK or deferoxamine; format: cell-based, human; settings: HGF-1, FAC 20, 50 and 100 μM, 48 hours, FIG. 7
Experimental: (§1) MMP inhibition was tested using CMK and deferoxamine (DES). Ferric ammonium citrate solid (FAC, Amresco) was prepared in 1 mM hydrochloric acid to form a 50 mM stock solution. Iron solutions were freshly made for each experiment and the iron content quantified through a colorimetric assay. Cells were induced with FAC concentrations of 20, 50, and 100 μM, LPS and CMK or a combination, and the cells were allowed to grow in the incubator for 48 hours.
(§2) During the protein extraction, media was collected, flash frozen and saved for later analysis, including Western Blot and ELISA. Cells were washed with cold PBS and lysed with RIPA buffer (150 mM NaCl, 50 mM Tris, 1% Sodium deoxycholate, 1% Triton X-100 and 0.1% SDS). Cells were collected with a cell scraper and centrifuged at 14000 rpms for 30 minutes. The supernatant was collected and assayed for protein concentration. Samples were mixed with 4×SDS loading buffer (40% Glycerol, 8% SDS, 200 mM Tris-HCl, 400 mM dithiothreitol, 0.005% bromophenol blue) for further analysis.
(§3) Gel electrophoresis was conducted using 12% sodium dodecyl sulfate (SDS) and polyacrylamide gels. Equal amounts (30-50 μg) of protein were loaded in each lane and allowed to separate for 1 hour at 150 V.
(§4) Proteins from gels were transferred into 0.45 μm nitrocellulose paper (Bio-Rad) using tris-glycine transfer buffer with 20% methanol using 400 mAmp for 90 minutes. […]

MMP-13 = settings: HGF-1, FAC 20, 50 and 100 μM, 48 hours, FIG. 8
Experimental: as §1, §2, §3, §4

MMP-14 = assay: Western blot of MMP-14 in HGF-1 cells treated with FAC, CMK or deferoxamine; format: cell-based, human; settings: HGF-1, FAC 20, 50 and 100 μM, 48 hours, FIG. 9
Experimental: as §1, §2, §3, §4

MMP-3 = format: cell-based, human; settings: HGF-1 stimulated with FAC 20, 50 and 100 μM, 48 hours, FIG. 11
Experimental: MMP inhibition was tested using CMK and deferoxamine (DES).
The supernatant was collected and assayed for protein concentration.

MMP-9 = assay: Western blot of MMP-9 in HGF-1 cells treated with FAC or deferoxamine; format: cell-based, human; settings: HGF-1 stimulated with FAC 20, 50 and 100 μM, 48 hours, FIG. 10
Experimental: as §1, §2, §3, §4

Human MMP-8; MMP8 = settings: HGF-1, 100 μM FAC, FIG. 17
Experimental: (§5) Gene expression of MMPs was evaluated after treatment with CMK and deferoxamine. Tissue culture was washed with 1×PBS prior to collection of samples. Cells were lysed and RNA purified using an RNeasy mini kit (Cat #74104) from Qiagen. RNA prep Kit was used according to manufacturer's protocol. All samples were treated with Qiagen DNase (Cat #79254). One microgram of RNA was used for reverse transcription and subsequent SYBR® Green real time PCR for the genes of interest as previously described. Reverse transcription kits (Cat #330401) and SYBR Green real-time PCR master mixes (Cat #330523) were purchased from Qiagen (Louisville, KY).
(§6) The following primers and probes were used: Human MMP-2; MMP2 (Cat #PPH00151B), Human MMP-8; MMP8 (Cat #PPH00908C), Human MMP-13; MMP13 (Cat #PPH00121B), Human MMP-14; MMP14 (Cat #PPH00198C), and Human glyceraldehyde 3-phosphate dehydrogenase; GAPDH (Cat #PPH00150F).
(§7) FIG. 17 is a summary of the qPCR analysis for each MMP.

MMPs = settings: HGF-1, 100 μM FAC, FIG. 17
Experimental: as §5, §6, §7

| Compound | Cell viability (HGF-1 cells) | presence of MMP-2 protein (MMP-2) | presence of MMP-13 protein (MMP-13) | presence of MMP-14 protein (MMP-14) | MMP-3 protein expression (MMP-3) | MMP-9 protein expression (MMP-9) | MMP-8 gene expression (qPCR) (Human MMP-8; MMP8) | gene expression of the MMPs (qPCR) (MMPs) |
| --- | --- | --- | --- | --- | --- | --- | --- | --- |
| CC(=O)N(O)CCCCCNC(=O)CCC(=O)N(O)CCCCCNC(=O)CCC(=O)N(O)CCCCCN [deferoxamine] | unaffected | – | – | – | – | – | – | – |
| Ferric ammonium citrate [FAC] | – | dose-dependent increased presence | dose-dependent increased presence | dose-dependent increased presence | increased expression | increased expression | except for MMP-8 | acted as an inducer of gene expression of the MMPs |
